Test results reported in patent publication US10294202B2, “Pyrrolidinones as herbicides” (FMC Corporation, priority 2013, dated 2019).

Assays:
Test in all cases: Test D pre-/postemergence herbicide test
[1] = test system: deadnettle; format: in vivo, Lamium amplexicaule; details: for Plant response rating: Deadnettle, scale 0 to 100; for Plant response rating, Deadnettle: scale 0 to 100 (0 no effect, 100 complete control)
Outline: (§1)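 Visual injury score, 0 (no effect) to 100 (complete control), taken 7–21 d post-treatment against untreated controls. Application was preemergence in silt loam and postemergence at 1- to 4-leaf stage, using a surfactant-containing non-phytotoxic solvent formulation.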

[2] = test system: buckwheat, wild; format: in vivo, Polygonum convolvulus; details: for Plant response rating: Buckwheat, Wild, scale 0 to 100; for Plant response rating, Buckwheat, Wild: scale 0 to 100 (0 no effect, 100 complete control)
Outline: as §1

[3] = test system: galium; format: in vivo, Galium aparine; details: for Plant response rating: Galium, scale 0 to 100; for Plant response rating, Galium: scale 0 to 100 (0 no effect, 100 complete control)
Outline: as §1

[4] = test system: blackgrass; format: in vivo, Alopecurus myosuroides; details: for Plant response rating: Blackgrass, scale 0 to 100; for Plant response rating, Blackgrass: scale 0 to 100 (0 no effect, 100 complete control)
Outline: as §1

[5] = test system: bluegrass; format: in vivo, Poa annua; details: for Plant response rating: Bluegrass, scale 0 to 100; for Plant response rating, Bluegrass: scale 0 to 100 (0 no effect, 100 complete control)
Outline: as §1

[6] = test system: foxtail, green; format: in vivo, Setaria viridis; details: for Plant response rating: Foxtail, Green, scale 0 to 100; for Plant response rating, Foxtail, Green: scale 0 to 100 (0 no effect, 100 complete control)
Outline: as §1

[7] = test system: bromegrass, downy; format: in vivo, Bromus tectorum; details: for Plant response rating: Bromegrass, Downy, scale 0 to 100; for Plant response rating, Bromegrass, Downy: scale 0 to 100 (0 no effect, 100 complete control)
Outline: as §1

O=C1NCC(c2ccc(C(F)(F)F)cc2)C1C(=O)Nc1ccccc1F (centres unmarked) [Compound 231]
Plant response rating ([1]; Postemergence, 31 g ai/ha): 35
Plant response rating ([1]; Postemergence, 62 g ai/ha): 70
Plant response rating ([1]; Postemergence, 125 g ai/ha): 35
Plant response rating ([1]; Postemergence, 250 g ai/ha): 70
Plant response rating, Deadnettle ([1]; Preemergence, 62 g ai/ha): 75
Plant response rating, Deadnettle ([1]; Preemergence, 125 g ai/ha): 60
Plant response rating, Deadnettle ([1]; Preemergence, 31 g ai/ha): 35
Plant response rating ([1]; Preemergence, 250 g ai/ha): 85
Plant response rating ([2]; Postemergence, 31 g ai/ha): 0
Plant response rating ([2]; Postemergence, 62 g ai/ha): 0
Plant response rating ([2]; Postemergence, 125 g ai/ha): 0
Plant response rating ([2]; Postemergence, 250 g ai/ha): 0
Plant response rating, Buckwheat, Wild ([2]; Preemergence, 62 g ai/ha): 0
Plant response rating, Buckwheat, Wild ([2]; Preemergence, 125 g ai/ha): 0
Plant response rating, Buckwheat, Wild ([2]; Preemergence, 31 g ai/ha): 0
Plant response rating ([2]; Preemergence, 250 g ai/ha): 10
Plant response rating ([3]; Postemergence, 31 g ai/ha): 40
Plant response rating ([3]; Postemergence, 62 g ai/ha): 45
Plant response rating ([3]; Postemergence, 125 g ai/ha): 55
Plant response rating ([3]; Postemergence, 250 g ai/ha): 55
Plant response rating, Galium ([3]; Preemergence, 62 g ai/ha): 40
Plant response rating, Galium ([3]; Preemergence, 125 g ai/ha): 35
Plant response rating, Galium ([3]; Preemergence, 31 g ai/ha): 20
Plant response rating ([3]; Preemergence, 250 g ai/ha): 40
Plant response rating ([4]; Postemergence, 31 g ai/ha): 0
Plant response rating ([4]; Postemergence, 62 g ai/ha): 10
Plant response rating ([4]; Postemergence, 125 g ai/ha): 10
Plant response rating ([4]; Postemergence, 250 g ai/ha): 20
Plant response rating, Blackgrass ([4]; Preemergence, 62 g ai/ha): 0
Plant response rating, Blackgrass ([4]; Preemergence, 125 g ai/ha): 15
Plant response rating, Blackgrass ([4]; Preemergence, 31 g ai/ha): 0
Plant response rating ([4]; Preemergence, 250 g ai/ha): 55
Plant response rating ([5]; Postemergence, 31 g ai/ha): 5
Plant response rating ([5]; Postemergence, 62 g ai/ha): 10
Plant response rating ([5]; Postemergence, 125 g ai/ha): 10
Plant response rating ([5]; Postemergence, 250 g ai/ha): 10
Plant response rating, Bluegrass ([5]; Preemergence, 62 g ai/ha): 0
Plant response rating, Bluegrass ([5]; Preemergence, 125 g ai/ha): 15
Plant response rating, Bluegrass ([5]; Preemergence, 31 g ai/ha): 5
Plant response rating ([5]; Preemergence, 250 g ai/ha): 25
Plant response rating ([6]; Postemergence, 31 g ai/ha): 10
Plant response rating ([6]; Postemergence, 62 g ai/ha): 65
Plant response rating ([6]; Postemergence, 125 g ai/ha): 70
Plant response rating ([6]; Postemergence, 250 g ai/ha): 70
Plant response rating, Foxtail, Green ([6]; Preemergence, 62 g ai/ha): 80
Plant response rating, Foxtail, Green ([6]; Preemergence, 125 g ai/ha): 95
Plant response rating, Foxtail, Green ([6]; Preemergence, 31 g ai/ha): 45
Plant response rating ([6]; Preemergence, 250 g ai/ha): 98
Plant response rating ([7]; Postemergence, 31 g ai/ha): 15
Plant response rating ([7]; Postemergence, 62 g ai/ha): 20
Plant response rating ([7]; Postemergence, 125 g ai/ha): 25
Plant response rating ([7]; Postemergence, 250 g ai/ha): 25
Plant response rating, Bromegrass, Downy ([7]; Preemergence, 62 g ai/ha): 0
Plant response rating, Bromegrass, Downy ([7]; Preemergence, 125 g ai/ha): 0
Plant response rating, Bromegrass, Downy ([7]; Preemergence, 31 g ai/ha): 0
Plant response rating ([7]; Preemergence, 250 g ai/ha): 15
